Experimental findings from ChEMBL document CHEMBL2440031, “Benzochalcones bearing pyrazoline moieties show anti-colorectal cancer activities and selective inhibitory effects on aurora kinases” (Bioorg Med Chem, 2013) are described below.

Calls of active or inactive are those of the source. No cut-off for these calls is given here.

Test [1] concerns HCT-116. Nature of the test: Cytotoxicity against human HCT116 cells after 7 days using crystal violet staining by clonogenic survival assay. The note with it: HCT-116, 168 h. The format is functional, cell-based.
Test [2] concerns HCT-116. Nature of the test: Effect on cyclin-A1 expression in human HCT116 cells at 40 uM after 12 to 48 hrs by Western blot analysis. The class given is functional, cell-based.
The test system of test [3] is HCT-116. Nature of the test: Increase of p21 expression in human HCT116 cells at 40 uM by Western blot analysis. The format is functional, cell-based. The following applies: TDE = time-dependent effect. In general terms: A western blot detects proteins with antibodies after separation by electrophoresis.
In test [4] the test system is HCT-116. Nature of the test: Cell cycle arrest in human HCT116 cells assessed as decrease of S phase accumulation at 40 uM after 12 to 48 hrs using propidium iodide staining by flow cytometric analysis. The class given is functional, cell-based. In general terms: In flow cytometry, cells or beads pass a laser one at a time.
Test [5] deals with HCT-116. Nature of the test: Increase of cyclin-D1 expression in human HCT116 cells at 40 uM after 12 hrs by Western blot analysis. The class given is functional, cell-based.
For test [6], the system named is HCT-116. Nature of the test: Cytotoxicity against human HCT116 cells up to 40 uM by WST-8 assay. The format is functional, cell-based. The note with it: TDE = time-dependent effect. Background: Tetrazolium dyes change colour on reduction, which living cells bring about.
Test [7] relates to HCT-116. Nature of the test: Cell cycle arrest in human HCT116 cells assessed as accumulation at sub-G1 phase accumulation at 40 uM after 12 to 48 hrs using propidium iodide staining by flow cytometric analysis relative to total cells. The class given is functional.
Test [8] deals with HCT-116. Nature of the test: Cell cycle arrest in human HCT116 cells assessed as decrease of G2/M phase accumulation at 40 uM after 12 to 48 hrs using propidium iodide staining by flow cytometric analysis. The format is functional, cell-based.
Test [9] deals with HCT-116. Nature of the test: Cytotoxicity against human HCT116 cells after 24 to 48 hrs by WST-8 assay. The format is functional, cell-based.
For test [10], the system named is HCT-116. Nature of the test: Decrease of cyclin-B1 expression in human HCT116 cells at 40 uM after 24 hrs by Western blot analysis. The format is functional, cell-based.
Test [11] concerns HCT-116. Nature of the test: Cell cycle arrest in human HCT116 cells assessed as increase of G1 phase accumulation at 40 uM after 12 to 48 hrs using propidium iodide staining by flow cytometric analysis. The class given is functional, cell-based.
The subject of test [12] is HCT-116. Nature of the test: Increase of cyclin-D1 expression in human HCT116 cells at 40 uM after 24 to 48 hrs by Western blot analysis. The format is functional, cell-based.
Test [13] concerns HCT-116. Nature of the test: Increase of CDK expression in human HCT116 cells at 40 uM by Western blot analysis. The class given is functional, cell-based. The following applies: TDE = time-dependent effect.

What is called IC50 is the concentration at which inhibition is half-maximal. High values mean a need for much substance, low ones inhibition by little substance.

Regarding `COc1ccc(C2CC(c3c(O)ccc4ccccc34)=NN2c2ccc(Cl)cc2)cc1` (stereo not drawn), the midpoint of inhibition with HCT-116 [1], the IC50, lay at 9.8 µM.

With `COc1ccc(C2CC(c3ccc4ccccc4c3O)=NN2)c(OC)c1OC` (stereo not drawn), the IC50 in the test with HCT-116 [1] amounted to 11.3 µM.

In the case of `COc1ccc(C2CC(c3c(O)ccc4ccccc34)=NN2c2ccc(Cl)cc2)c(OC)c1` (stereo not drawn), the IC50 in the test with HCT-116 [1] amounted to 5.4 µM.

Regarding `COc1cc(OC)c(C2CC(c3ccc4ccccc4c3O)=NN2)c(OC)c1` (stereo not drawn), in the test with HCT-116 [1], the IC50 turned out to be 32.5 µM.

In the case of `COc1ccc(C2CC(c3ccc4ccccc4c3O)=NN2)c(OC)c1` (stereo not drawn), in the test with HCT-116 [1], 8.8 µM corresponded to half-maximal inhibition (IC50).

`COc1cc(OC)c(C2CC(c3c(O)ccc4ccccc34)=NN2c2ccc(Cl)cc2)cc1OC` (stereo not drawn) yielded an IC50 in the test on HCT-116 [1] of 7.8 µM.

`COc1ccccc1C1CC(c2ccc3ccccc3c2O)=NN1` (stereo not drawn) showed an IC50 in the test on HCT-116 [1] of 17.4 µM.

As to `COc1cc(OC)cc(C2CC(c3ccc4ccccc4c3O)=NN2)c1` (stereo not drawn), the half-maximal inhibitory concentration (IC50) in the test with HCT-116 [1] came out at 4.7 µM.

For `COc1ccc(C2CC(c3c(O)ccc4ccccc34)=NN2)c(OC)c1` (stereo not drawn), the outcome with HCT-116 [2], with HCT-116 [4], in the test with HCT-116 [5], with HCT-116 [8], in the test with HCT-116 [10] and in the test on HCT-116 [11] was Active. Also, the Activity result in the test with HCT-116 [3] is “tde”; in the test with HCT-116 [6], “tde”; with HCT-116 [7], 21.3%; in the test on HCT-116 [9], “Dose-dependent effect”; with HCT-116 [13], “tde”. In the test on HCT-116 [1], this compound showed a half-inhibitory concentration (IC50) of 2.4 µM. Moreover, the outcome in the test on HCT-116 [12] was inactive.

In turn, `COc1cccc(C2CC(c3ccc4ccccc4c3O)=NN2)c1OC` (stereo not drawn) displayed a 50% inhibitory concentration (IC50) with HCT-116 [1] of 15.2 µM.

Consider `COc1cc(OC)c(C2CC(c3ccc4ccccc4c3O)=NN2)cc1OC` (stereo not drawn), for which 9 µM corresponded to half-maximal inhibition in the test on HCT-116 [1] (IC50).

In turn, `COc1cccc(C2CC(c3c(O)ccc4ccccc34)=NN2)c1OC` (stereo not drawn) showed an IC50 in the test with HCT-116 [1] of 6.3 µM.

In the test on HCT-116 [1], `COc1ccc(C2CC(c3ccc4ccccc4c3O)=NN2)cc1` (stereo not drawn) came in with a 50% inhibitory concentration (IC50) of 13.2 µM.

With `COc1ccc(C2CC(c3c(O)ccc4ccccc34)=NN2)cc1` (stereo not drawn), the IC50 in the test with HCT-116 [1] stood at 7.8 µM.

In turn, `COc1cccc(C2CC(c3ccc4ccccc4c3O)=NN2)c1` (stereo not drawn) displayed a half-maximal inhibitory concentration (IC50) in the test on HCT-116 [1] of 20.8 µM.

Take `COc1cc(OC)cc(C2CC(c3c(O)ccc4ccccc34)=NN2)c1` (stereo not drawn): the midpoint of inhibition in the test with HCT-116 [1], the IC50, lay at 5.7 µM.
